What was measured:
Format in all cases: in vivo
Sunflower [1] = test: Test C preemergence; settings: Rate 500 g/ha, visual evaluation after 12 to 14 days
corn (Zea mays) = test: Test C preemergence
Method in brief: (§1)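 Plants held in greenhouse for 12–14 days post-application are scored by eye against controls on a 0–100 control scale. Application timing: preemergence on sown seed, or postemergence on 2–18 cm plants.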

[2] = tested on: Surinam grass (Brachiaria decumbens); test: Test C preemergence
Method in brief: as §1

[3] = tested on: goosegrass (Eleusine indica); test: Test C preemergence
Method in brief: as §1

Sunflower [4] = test: Test C preemergence; settings: Rate 125 g/ha; scale 0 to 100, 0 no effect, 100 complete control
[5] = tested on: yellow nutsedge (Cyperus esculentus); test: Test C preemergence
Method in brief: as §1

[6] = tested on: giant foxtail (Setaria faberii); test: Test C preemergence
Method in brief: as §1

[7] = tested on: velvetleaf (Abutilon theophrasti); test: Test C preemergence
Method in brief: as §1

[8] = tested on: morningglory (Ipomoea hederacea); test: Test C preemergence
Method in brief: as §1

[9] = tested on: lambsquarters (Chenopodium album); test: Test C preemergence
Method in brief: as §1

[10] = tested on: woolly cupgrass (Eriochloa villosa); test: Test C preemergence
Method in brief: as §1

soybean (Glycine max) = test: Test C preemergence
Method in brief: as §1

[11] = tested on: pigweed (Amaranthus retroflexus); test: Test C preemergence
Method in brief: as §1

kochia (Kochia scoparia) = test: Test C preemergence
Method in brief: as §1

[12] = tested on: bermudagrass (Cynodon dactylon); test: Test C preemergence
Method in brief: as §1

Nightshade = test: Test C preemergence
[13] = tested on: crabgrass (Digitaria sanguinalis); test: Test C preemergence
Method in brief: as §1

[14] = tested on: johnsongrass (Sorghum halepense); test: Test C preemergence
Method in brief: as §1

[15] = tested on: cocklebur (Xanthium strumarium); test: Test C preemergence
Method in brief: as §1

[16] = tested on: barnyardgrass (Echinochloa crus-galli); test: Test C flooded paddy test; settings: for Barnyardgrass plant response rating: Flooded Paddy, scale 0 to 100, 0 no effect, 100 complete control; for Plant response rating, Barnyardgrass: flooded paddy test, scale 0 to 100 (0 no effect, 100 complete control)
Method in brief: (§2)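 Visual injury score, 0 (no effect) to 100 (complete control), relative to controls. Paddy plants treated at 2-leaf stage; greenhouse hold 12–14 d before rating.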

[17] = tested on: smallflower flatsedge (Cyperus difformis); test: Test C flooded paddy test; settings: for Flatsedge plant response rating: Flooded Paddy, scale 0 to 100, 0 no effect, 100 complete control; for Plant response rating, Flatsedge: flooded paddy test, scale 0 to 100 (0 no effect, 100 complete control)
Method in brief: as §2

[18] = tested on: duck salad (Heteranthera limosa); test: Test C flooded paddy test; settings: for Ducksalad plant response rating: Flooded Paddy, scale 0 to 100, 0 no effect, 100 complete control; for Plant response rating, Ducksalad: flooded paddy test, scale 0 to 100 (0 no effect, 100 complete control)
Method in brief: as §2

[19] = Rate 125 g/ha, scale 0 to 100, 0 no effect, 100 complete control
[20] = preemergence, Rate 62 g/ha, scale 0 to 100
[21] = preemergence, Rate 500 g/ha, visual evaluation after 12 to 14 days
[22] = preemergence, Rate 250 g/ha, scale 0 to 100, 0 no effect, 100 complete control

With `CCC(CC)c1ccn(C2CCN(c3cccc(OC)c3)C2=O)n1` (stereo not drawn) [Compound 96] the “Plant response rating (0 to 100), Sunflower” value (Sunflower [1]) was 50, the “Plant response rating, Corn” value (corn (Zea mays); [19]) was 20 and the “Plant response rating, Corn” value (corn (Zea mays); [20]) was 0. The “Plant response rating (0 to 100), Corn” value (corn (Zea mays); [21]) was 50, the “Plant response rating, Corn” value (corn (Zea mays); [22]) was 40 and the “Plant response rating, Surinam grass” value [2, 19] was 90. For the same molecule, the “Plant response rating, Surinam grass” value [2, 20] was 50, the “Plant response rating (0 to 100), Surinam grass” value [2, 21] was 100 and the “Plant response rating, Surinam grass” value [2, 22] was 100. For the same molecule, the “Plant response rating, Goosegrass” value [3, 19] was 100, the “Plant response rating, Goosegrass” value [3, 20] was 100 and the “Plant response rating (0 to 100), Goosegrass” value [3, 21] was 100. For the same molecule, the “Plant response rating, Goosegrass” value [3, 22] was 100, the “Plant response rating, Sunflower” value (Sunflower [4]) was 0 and the “Plant response rating, Nutsedge” value [5, 19] was 0. The “Plant response rating, Nutsedge” value [5, 20] was 0, the “Plant response rating (0 to 100), Nutsedge” value [5, 21] was 70 and the “Plant response rating, Nutsedge” value [5, 22] was 10. The “Plant response rating, Foxtail, Giant” value [6, 19] was 0, the “Plant response rating, Foxtail, Giant” value [6, 20] was 100 and the “Plant response rating (0 to 100), Foxtail, Giant” value [6, 21] was 100. For the same molecule, the “Plant response rating, Foxtail, Giant” value [6, 22] was 0, the “Plant response rating, Velvetleaf” value [7, 19] was 0 and the “Plant response rating, Velvetleaf” value [7, 20] was 0. For the same molecule, the “Plant response rating (0 to 100), Velvetleaf” value [7, 21] was 40, the “Plant response rating, Velvetleaf” value [7, 22] was 30 and the “Plant response rating, Morningglory” value [8, 19] was 0. For the same molecule, the “Plant response rating, Morningglory” value [8, 20] was 0, the “Plant response rating (0 to 100), Morningglory” value [8, 21] was 20 and the “Plant response rating, Morningglory” value [8, 22] was 20. For the same molecule, the “Plant response rating, Lambsquarters” value [9, 19] was 100, the “Plant response rating, Lambsquarters” value [9, 20] was 100 and the “Plant response rating (0 to 100), Lambsquarters” value [9, 21] was 100. For the same molecule, the “Plant response rating, Lambsquarters” value [9, 22] was 100, the “Plant response rating, Cupgrass, Woolly” value [10, 19] was 95 and the “Plant response rating, Cupgrass, Woolly” value [10, 20] was 60. The “Plant response rating (0 to 100), Cupgrass, Woolly” value [10, 21] was 100, the “Plant response rating, Cupgrass, Woolly” value [10, 22] was 100 and the “Plant response rating, Soybean” value (soybean (Glycine max); [19]) was 0. The “Plant response rating, Soybean” value (soybean (Glycine max); [20]) was 0, the “Plant response rating (0 to 100), Soybean” value (soybean (Glycine max); [21]) was 70 and the “Plant response rating, Soybean” value (soybean (Glycine max); [22]) was 50. For the same molecule, the “Plant response rating, Pigweed” value [11, 19] was 0, the “Plant response rating, Pigweed” value [11, 20] was 0 and the “Plant response rating (0 to 100), Pigweed” value [11, 21] was 50. The “Plant response rating, Pigweed” value [11, 22] was 0, the “Plant response rating, Kochia” value (kochia (Kochia scoparia); [19]) was 100 and the “Plant response rating, Kochia” value (kochia (Kochia scoparia); [20]) was 100. For the same molecule, the “Plant response rating (0 to 100), Kochia” value (kochia (Kochia scoparia); [21]) was 100, the “Plant response rating, Kochia” value (kochia (Kochia scoparia); [22]) was 100 and the “Plant response rating, Bermudagrass” value [12, 19] was 100. For the same molecule, the “Plant response rating, Bermudagrass” value [12, 20] was 100, the “Plant response rating (0 to 100 where 0 is no effect and 100 is complete control), Bermudagrass” value [12, 21] was 100 and the “Plant response rating, Bermudagrass” value [12, 22] was 100. The “Plant response rating, Nightshade” value (Nightshade; Rate 62 g/ha, scale 0 to 100) was 0, the “Plant response rating, Nightshade” value (Nightshade; [19]) was 10 and the “Plant response rating, Nightshade” value (Nightshade; Rate 250 g/ha, scale 0 to 100, 0 no effect, 100 complete control) was 60. For the same molecule, the “Plant response rating, Crabgrass” value [13, 19] was 100, the “Plant response rating, Crabgrass” value [13, 20] was 100 and the “Plant response rating (0 to 100), Crabgrass” value [13, 21] was 100. The “Plant response rating, Crabgrass” value [13, 22] was 100, the “Plant response rating, Johnsongrass” value [14, 19] was 30 and the “Plant response rating, Johnsongrass” value [14, 20] was 20. The “Plant response rating (0 to 100), Johnsongrass” value [14, 21] was 70, the “Plant response rating, Johnsongrass” value [14, 22] was 50 and the “Plant response rating, Cocklebur” value [15, 19] was 20. For the same molecule, the “Plant response rating, Cocklebur” value [15, 20] was 0, the “Plant response rating (0 to 100), Cocklebur” value [15, 21] was 30 and the “Plant response rating, Cocklebur” value [15, 22] was 30. For the same molecule, the “Barnyardgrass plant response rating” value ([16]; Rate 250 g/ha) was 100, the “Barnyardgrass plant response rating” value ([16]; Rate 500 g/ha) was 100 and the “Plant response rating, Barnyardgrass” value ([16]; Rate 62 g/ha) was 80. The “Plant response rating, Barnyardgrass” value ([16]; Rate 125 g/ha) was 80, the “Flatsedge plant response rating” value ([17]; Rate 250 g/ha) was 100 and the “Flatsedge plant response rating” value ([17]; Rate 500 g/ha) was 100. The “Plant response rating, Flatsedge” value ([17]; Rate 62 g/ha) was 90, the “Plant response rating, Flatsedge” value ([17]; Rate 125 g/ha) was 90 and the “Ducksalad plant response rating” value ([18]; Rate 250 g/ha) was 100. For the same molecule, the “Ducksalad plant response rating” value ([18]; Rate 500 g/ha) was 100, the “Plant response rating, Ducksalad” value ([18]; Rate 62 g/ha) was 80 and the “Plant response rating, Ducksalad” value ([18]; Rate 125 g/ha) was 90.

— patent publication US7138361B2, “Herbicidal heterocycles” (E. I. du Pont de Nemours and Company, priority 2000, dated 2006)
